Where a name gives a salt, the structure may show the parent alone. Read-outs that look alike come from different tables or passages of the source.
What was measured:
[1] = tested on: plasma S1P and dihydroC16-ceramide; experiment: Plasma sphingolipid pharmacodynamics; format: in vivo, human
tumors = conditions: mouse models; ref [21]; cited from earlier work
SK2 = conditions: ref [17], [21], cited from earlier work
plasma S1P = conditions: at therapeutically efficacious drug doses; ref [34]; cited from earlier work
[2] = cited from earlier work
[3] = tested on: patients with advanced solid tumors; design: species or system human; conditions: in vivo
[4] = Plasma drug exposure of ABC294640; format: in vivo, human; conditions: for Trough drug level: Day 28 prior to drug administration; for AUC(0-inf) / AUC(0-t): oral
[5] = 250 and 500 mg treatment groups

Which “Maximum plasma S1P decrease” value ([1]; 250 mg (Days 1 and 28, 250 mg qd with 250 mg bid combined), n=10) does the source give for `O=C(NCc1ccncc1)C12CC3CC(C1)CC(c1ccc(Cl)cc1)(C3)C2` [ABC294640, 4-pyridinylmethyl-3-(4-chlorophenyl)adamantinecarboxamide, hydrochloride salt] here?
Its value is 51±6%.

And the “Maximum plasma S1P decrease” value ([1]; 500 mg (Days 1 and 28 combined), n=5)?
The value was 46±9%.

And the “Maximum plasma S1P decrease” value ([1]; 750 mg (Days 1 and 28 combined), n=2)?
The value was 54±14%.

And the “Time of maximum elevation of plasma dihydroC16-ceramide” value [1, 5]?
The value was 8 to 12 h.

What about the “Time of return of plasma dihydroC16-ceramide to baseline” value [1, 5] of the same molecule?
Its value is 24 h.

And the “Time of minimum plasma S1P level after treatment” value ([1]; patients, all doses)?
The value was 12 h.

And the “Time of recovery of plasma S1P to baseline” value ([1]; patients, all doses)?
The value was ≤ 24 h.

What about the “Dose at which single-agent antitumor activity is typically apparent” value (tumors) of the same molecule?
The value was ≥ 25 mg/kg/day.

And the Ki (SK2; read-out: Ki, SK2)?
Its Ki is 9 µM.

What about the “Ki, SK2” value (SK2) of the same molecule?
Its value is 3.4 µg/mL.

And the “Mode of SK2 inhibition” value (SK2)?
The value was “competitive with respect to sphingosine”.

And the “Reduction of plasma S1P levels” value (plasma S1P)?
The value was “up to 50%”.

And the half-life ([2]; across several species, extensive preclinical work)?
The half-life was “approximately 4 hours”.

And the “Half-life predicted by animal data” value ([2]; animal data)?
Its value is ~ 4.5 hours.

What about the “Patients with psychiatric disorders” value ([3]; human) of the same molecule?
The value was 2 patients.

And the “Patients with treatment-related nervous system disorders” value ([3]; human)?
The value was 6 patients.

What about the “Fatigue (treatment-related adverse event)” value ([3]; human, 28 day) of the same molecule?
The value was 0 n (%).

And the “Creatinine Increase (treatment-related adverse event)” value ([3]; human, 28 days)?
Its value is 0 n (%).

What about the “Fatigue (treatment-related adverse event)” value ([3]; human, 28 days) of the same molecule?
The value was 5 (24) n (%).

And the “Hyperbilirubinemia (treatment-related adverse event)” value ([3]; human, 28 days)?
The value was 0 n (%).

And the “Vision Change (treatment-related adverse event)” value ([3]; human, 28 days)?
Its value is 0 n (%).

And the “Recommended Phase II Dose” value ([3]; human, po, 28 day cycles, continuous)?
Its value is 500 mg bid.

And the “Tolerability of dose level” value [3]?
Its value is “not to be tolerable”.

And the Trough drug level ([4]; 250 mg bid, n=3)?
Its Trough drug level is 0.29 ± 0.15 µg/mL.

And the Trough drug level ([4]; 250 mg qd, n=5)?
The Trough drug level was 0.20 ± 0.34 µg/mL.

And the “Ratio AUC0-T at Day 28 to AUCINF at Day 1” value ([4]; 500 mg bid)?
Its value is 1.25.

And the Trough drug level ([4]; 500 mg bid, n=5)?
Its Trough drug level is 1.82 ± 0.85 µg/mL.

What about the “Ratio AUC0-T at Day 28 to AUCINF at Day 1” value ([4]; 750 mg bid) of the same molecule?
Its value is 1.85.

What about the Trough drug level ([4]; 750 mg bid, n=1) of the same molecule?
Its Trough drug level is 4.48 µg/mL.

And the AUC(0-inf) ([4]; human, plasma, 250 mg)?
Its AUC(0-inf) is 15200 ± 8230 ng·h/mL.

What about the AUC(0-t) ([4]; human, plasma, 250 mg) of the same molecule?
Its AUC(0-t) is 17800 ± 15200 ng·h/mL.

What about the AUC(0-inf) ([4]; human, plasma, 500 mg) of the same molecule?
The AUC(0-inf) was 40700 ± 28000 ng·h/mL.

And the AUC(0-t) ([4]; human, plasma, 500 mg)?
Its AUC(0-t) is 50800 ± 11300 ng·h/mL.

What about the Tmax ([4]; human, plasma, po) of the same molecule?
Its Tmax is 1 to 2 h.

And the half-life ([4]; human, plasma, po)?
The half-life was 5 to 15 h.

From paper PMC5559328 (Clinical cancer research : an official journal of the …, 2017)
